Test results reported in the NIST ThermoML archive (doi:10.1016/j.jct.2008.08.010).

Experiments:
[1] = refractive index (Na D-line) (dimensionless); details: 101.33 kPa, Liquid, Standard Abbe refractometry
[2] = 101.33 kPa, Liquid, Vibrating tube method

CCCCn1cc[n+](C)c1.F[P-](F)(F)(F)(F)F [1-butyl-3-methylimidazolium hexafluorophosphate]
Details | mass density, [2] [kg/m3] | refractive index, [1]
298.2 K | 1363.9 | 1.4095
299.2 K | 1363.2 | 1.4093
300.2 K | 1362.4 | 1.4091
301.2 K | 1361.6 | 1.4089
302.2 K | 1360.8 | 1.4087
303.2 K | 1360.1 | 1.4085
304.2 K | 1359.3 | 1.4083
305.2 K | 1358.5 | 1.4081
306.2 K | 1357.8 | 1.4079
307.2 K | 1357 | 1.4077
308.2 K | 1356.2 | 1.4075
313.2 K | 1352.8 | –
318.2 K | 1348.8 | –
323.2 K | 1344.9 | –
333.2 K | 1336.9 | –
343.2 K | 1329 | –
353.2 K | 1321.1 | –

CCCCn1cc[n+](C)c1.COS(=O)(=O)[O-] [1-butyl-3-methylimidazolium methyl sulfate]
Details | mass density, [2] [kg/m3] | refractive index, [1]
298.2 K | 1205.7 | 1.4792
299.2 K | 1205 | 1.4789
300.2 K | 1204.4 | 1.4787
301.2 K | 1203.8 | 1.4784
302.2 K | 1203.1 | 1.4782
303.2 K | 1202.5 | 1.4779
304.2 K | 1201.9 | 1.4776
305.2 K | 1201.2 | 1.4774
306.2 K | 1200.6 | 1.4771
307.2 K | 1199.9 | 1.4768
308.2 K | 1199.3 | 1.4766
313.2 K | 1196.2 | –
318.2 K | 1193 | –
323.2 K | 1189.9 | –
333.2 K | 1183.5 | –
343.2 K | 1177 | –
353.2 K | 1170.6 | –

CCCCn1cc[n+](C)c1.F[B-](F)(F)F [1-butyl-3-methylimidazolium tetrafluoroborate]
Details | mass density, [2] [kg/m3] | refractive index, [1]
298.2 K | 1201 | 1.4218
299.2 K | 1200.3 | 1.4216
300.2 K | 1199.6 | 1.4213
301.2 K | 1199 | 1.4211
302.2 K | 1198.3 | 1.4208
303.2 K | 1197.6 | 1.4206
304.2 K | 1196.9 | 1.4204
305.2 K | 1196.2 | 1.4201
306.2 K | 1195.6 | 1.4199
307.2 K | 1194.9 | 1.4197
308.2 K | 1194.2 | 1.4195
313.2 K | 1190.8 | –
318.2 K | 1187.4 | –
323.2 K | 1184 | –
333.2 K | 1177.2 | –
343.2 K | 1170.4 | –
353.2 K | 1163.6 | –

CCCCn1cc[n+](C)c1.O=S(=O)([O-])C(F)(F)F [1-butyl-3-methylimidazolium trifluoromethanesulfonate]
Details | mass density, [2] [kg/m3] | refractive index, [1]
298.2 K | 1303.8 | 1.4368
299.2 K | 1303 | 1.4366
300.2 K | 1302.3 | 1.4364
301.2 K | 1301.5 | 1.4362
302.2 K | 1300.8 | 1.436
303.2 K | 1300 | 1.4357
304.2 K | 1299.2 | 1.4355
305.2 K | 1298.5 | 1.4352
306.2 K | 1297.7 | 1.435
307.2 K | 1297 | 1.4348
308.2 K | 1296.2 | 1.4346
313.2 K | 1292.4 | –
318.2 K | 1288.6 | –
323.2 K | 1284.7 | –
333.2 K | 1277.1 | –
343.2 K | 1269.5 | –
353.2 K | 1261.9 | –
